Laboratory results from ChEMBL document CHEMBL5137132, “Ulleungdolin, a Polyketide-Peptide Hybrid Bearing a 2,4-Di-O-methyl-β-d-antiarose from Streptomyces sp. 13F051 Co-cultured with Leohumicola minima 15S071” (2022).

Key:
MDA-MB-231 [1] = experiment: Anti-migration activity against human MDA-MB-231 cells assessed as inhibition of cell migration at 25 uM incubated for 18 hrs by wound healing assay; format: functional
MDA-MB-231 [2] = experiment: Anti-migration activity against human MDA-MB-231 cells assessed as inhibition of cell migration at 10 uM incubated for 18 hrs by wound healing assay; format: functional

## CO[C@@H]1[C@@H](O)[C@@H](OC)[C@H](Oc2cccc3c2C(=O)N([C@@]2(C(=O)N[C@H](C(=O)N[C@H](C(=O)O)c4ccc(O)cc4)[C@H](O)CC(N)=O)C[C@@H]2C)[C@H]3CCCCCCCC(=O)O)O[C@@H]1C
MDA-MB-231 [1]
  inhibition at 25 µM: 100%
MDA-MB-231 [2]
  inhibition at 10 µM: 42%
